pKi: −log10 of the molar value.
Columns and labels:
[1] = target: α2β2γ1 GABAA receptor subtype (Homo sapiens (Human), UniProt P47869+Q8N1C3); test: Two-electrode voltage clamp electrophysiology in Xenopus oocytes expressing GABAA receptors (modulation of GABA EC20 current); type: cell-based; conditions: for Efficacy (GABA)%: % modulation of GABA EC20 = 100*(Fold increase-1), α2β2γ1 oocytes, compound at approx. 30-fold Ki; for Fold increase h-GABA-A α2β2γ1 oocyte @ 30-fold Ki: Xenopus oocytes expressing α2β2γ1, compound at approx. 30-fold its Ki α2β2γ1, GABA EC20 current
In short: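 Two-electrode voltage clamp at −80 mV, room temperature, 3-5 days after mRNA injection into oocytes. GABA applied at EC20 for 1.5 min, twice, with compound during second application; at least 3 oocytes per concentration. Efficacy = extremum of point-by-point current ratio, expressed as 100×(fold increase−1).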

[2] = target: human GABAA α1β3γ2 receptor (Homo sapiens (Human), UniProt P14867+P18507); test: Radioligand binding assay for γ2-containing GABAA subtypes, [3H]Flumazenil competition (α1β3γ2); conditions: for γ2/γ1 Selectivity Ratio: Ki α1β3γ2 (nM)/Ki α2β2γ1 (nM); for LogSel: Log[Ki α1β3γ2 (nM)/Ki α2β2γ1 (nM)]
[3] = target: human GABAA α2β2γ1 receptor (Homo sapiens (Human), UniProt P47869+Q8N1C3); test: Radioligand binding assay for γ1-containing GABAA subtypes, [3H]RO7239181 competition (α2β2γ1)
[4] = target: human GABAA α5β2γ1 receptor (Homo sapiens (Human), UniProt P31644+Q8N1C3); test: Radioligand binding assay for γ1-containing GABAA subtypes, [3H]RO7239181 competition (α5β2γ1)
[5] = Ki h-GABAA α2β2γ1, [3H]RO7239181 competition binding, human GABAA α2β2γ1
[6] = Ki h-GABAA α2β2γ1, displacement of [3H]RO7239181, membranes of HEK293F cells expressing human receptors, means of two determinations

| Compound | Efficacy (GABA)% [1] [%] | Fold increase h-GABA-A α2β2γ1 oocyte @ 30-fold Ki [1] | pKi [2] | γ2/γ1 Selectivity Ratio [2] | LogSel [2] | pKi [3, 5] | pKi [3, 6] | pKi [4] |
| --- | --- | --- | --- | --- | --- | --- | --- | --- |
| C[C@@H]1N=C(c2ncccc2F)c2c(ccc(C(F)(F)F)c2Cl)-n2c(CO)cnc21 [Example 151, [(4S)-7-chloro-6-(3-fluoro-2-pyridyl)-4-methyl-8-(trifluoromethyl)-4H-imidazo[1,2-a][1,4]benzodiazepin-1-yl]methanol] | 253 | 3.53 | 4.88 | 142.0 | 2.15 | 7.03 | 7.03 | 7.62 |
| C[C@@H]1N=C(c2ncccc2F)c2c(ccc(C(F)(F)F)c2Cl)-n2cc(CO)nc21 [Example 153, [(4S)-7-chloro-6-(3-fluoro-2-pyridyl)-4-methyl-8-(trifluoromethyl)-4H-imidazo[1,2-a][1,4]benzodiazepin-2-yl]methanol] | 247 | 3.47 | 5.22 | 97.7 | 1.99 | 7.20 | 7.21 | 8.17 |
| Cc1c(C(=O)NCCO)nc2n1-c1ccc(C(F)(F)F)c(Cl)c1C(c1ncccc1F)=N[C@H]2C [Example 154, (4S)-7-chloro-6-(3-fluoro-2-pyridyl)-N-(2-hydroxyethyl)-1,4-dimethyl-8-(trifluoromethyl)-4H-imidazo[1,2-a][1,4]benzodiazepine-2-carboxamide] | 191 | 2.91 | 4.94 | 166.6 | 2.22 | 7.16 | 7.16 | 7.64 |
| C[C@H](O)CNC(=O)c1cn2c(n1)[C@H](C)N=C(c1ncccc1F)c1c-2ccc(C(F)(F)F)c1Cl [Example 155, (4S)-7-chloro-6-(3-fluoro-2-pyridyl)-4-methyl-N-[(2S)-2-hydroxypropyl]-8-(trifluoromethyl)-4H-imidazo[1,2-a][1,4]benzodiazepine-2-carboxamide] | 193 | 2.93 | 5.05 | 182.4 | 2.26 | 7.30 | 7.31 | 7.97 |
| C[C@@H]1N=C(c2ncccc2F)c2c(ccc(C(F)(F)F)c2Cl)-n2cc(C(=O)N3CC(C(F)F)C3)nc21 [Example 156, [3-(difluoromethyl)azetidin-1-yl]-[(4S)-7-chloro-6-(3-fluoro-2-pyridyl)-4-methyl-8-(trifluoromethyl)-4H-imidazo[1,2-a][1,4]benzodiazepin-2-yl]methanone] | 168 | 2.68 | 4.97 | 116.1 | 2.06 | 7.02 | 7.03 | 7.81 |
| C[C@@H]1N=C(c2ncccc2F)c2c(ccc(C(F)(F)F)c2Cl)-n2cc(C(=O)NC[C@@H](C)O)nc21 [Example 157, (4S)-7-chloro-6-(3-fluoro-2-pyridyl)-4-methyl-N-[(2R)-2-hydroxypropyl]-8-(trifluoromethyl)-4H-imidazo[1,2-a][1,4]benzodiazepine-2-carboxamide] | 191 | 2.91 | 4.95 | 185.8 | 2.27 | 7.22 | 7.22 | 7.87 |
| CCOC1CN(C(=O)c2cn3c(n2)[C@H](C)N=C(c2ncccc2F)c2c-3ccc(C(F)(F)F)c2Cl)C1 [Example 158, (3-ethoxyazetidin-1-yl)-[(4S)-7-chloro-6-(3-fluoro-2-pyridyl)-4-methyl-8-(trifluoromethyl)-4H-imidazo[1,2-a][1,4]benzodiazepin-2-yl]methanone] | 144 | 2.44 | < 4.52 | 318.9 | 2.50 | 7.02 | 7.03 | 7.66 |
| C[C@@H]1N=C(c2ncccc2F)c2c(ccc(C(F)(F)F)c2Cl)-n2cc(C(=O)N3CC(C)(O)C3)nc21 [Example 160, (3-hydroxy-3-methyl-azetidin-1-yl)-[(4S)-7-chloro-6-(3-fluoro-2-pyridyl)-4-methyl-8-(trifluoromethyl)-4H-imidazo[1,2-a][1,4]benzodiazepin-2-yl]methanone] | 177 | 2.77 | 4.87 | 201.1 | 2.30 | 7.18 | 7.18 | 7.72 |
| C[C@@H]1N=C(c2ncccc2F)c2c(ccc(C(F)(F)F)c2Cl)-n2cc(C(=O)N3CC(F)C3)nc21 [Example 161, (3-fluoroazetidin-1-yl)-[(4S)-7-chloro-6-(3-fluoro-2-pyridyl)-4-methyl-8-(trifluoromethyl)-4H-imidazo[1,2-a][1,4]benzodiazepin-2-yl]methanone] | 165 | 2.65 | < 4.52 | 412.4 | 2.62 | 7.14 | 7.14 | 7.67 |
| Cc1c(C(=O)NC[C@@H](C)O)nc2n1-c1ccc(C(F)(F)F)c(Cl)c1C(c1ncccc1F)=N[C@H]2C [Example 162, (4S)-7-chloro-6-(3-fluoro-2-pyridyl)-1,4-dimethyl-N-[(2R)-2-hydroxypropyl]-8-(trifluoromethyl)-4H-imidazo[1,2-a][1,4]benzodiazepine-2-carboxamide] | 148 | 2.48 | 4.93 | 210.1 | 2.32 | 7.26 | 7.25 | 7.87 |
| CC1CN(C(=O)c2cn3c(n2)[C@H](C)N=C(c2ncccc2F)c2c-3ccc(C(F)(F)F)c2Cl)C1 [Example 163, (3-methylazetidin-1-yl)-[(4S)-7-chloro-6-(3-fluoro-2-pyridyl)-4-methyl-8-(trifluoromethyl)-4H-imidazo[1,2-a][1,4]benzodiazepin-2-yl]methanone] | 136 | 2.36 | 4.87 | 134.0 | 2.13 | 7.06 | 7.00 | 7.69 |
| C[C@@H]1N=C(c2ncccc2F)c2c(ccc(C(F)(F)F)c2Cl)-n2cc(C(=O)NCC3(O)CC3)nc21 [Example 164, (4S)-7-chloro-6-(3-fluoro-2-pyridyl)-N-[(1-hydroxycyclopropyl)methyl]-4-methy-8-(trifluoromethyl)-4H-imidazo[1,2-a][1,4]benzodiazepine-2-carboxamide] | 177 | 2.77 | 5.07 | 253.2 | 2.40 | 7.45 | 7.47 | 7.97 |
| C[C@@H]1N=C(c2ncccc2F)c2c(ccc(C(F)(F)F)c2Cl)-n2cc(C(=O)N[C@H]3C[C@H](O)C3)nc21 [Example 165, (4S)-7-chloro-6-(3-fluoro-2-pyridyl)-N-(trans-3-hydroxycyclobutyl)-4-methyl-8-(trifluoromethyl)-4H-imidazo[1,2-a][1,4]benzodiazepine-2-carboxamide] | 183 | 2.83 | 5.11 | 179.6 | 2.25 | 7.44 | 7.36 | 8.02 |
| C[C@@H]1N=C(c2ncccc2F)c2c(ccc(C(F)(F)F)c2Cl)-n2cc(C(=O)N[C@H]3C[C@@H](O)C3)nc21 [Example 166, (4S)-7-chloro-6-(3-fluoro-2-pyridyl)-N-(cis-3-hydroxycyclobutyl)-4-methyl-8-(trifluoromethyl)-4H-imidazo[1,2-a][1,4]benzodiazepine-2-carboxamide] | 184 | 2.84 | 4.99 | 234.5 | 2.37 | 7.33 | 7.36 | 8.04 |

From patent US12365687B2 (Hoffmann-La Roche Inc., priority 2021, dated 2025)
